From PMC3914206

Columns and labels:
Type in all cases: binding
Parameters in all cases: KINOMEscan: ABL1(F317L)-phosphorylated / KINOMEscan: ABL1(H396P)-nonphosphorylated / KINOMEscan: ABL1(H396P)-phosphorylated / KINOMEscan: ABL1(M351T)-phosphorylated / KINOMEscan: ABL1(T315I)-phosphorylated / KINOMEscan: ABL1-nonphosphorylated / KINOMEscan: ABL1-phosphorylated / KINOMEscan: ACVR2A / KINOMEscan: ACVR2B / KINOMEscan: ADCK3 / KINOMEscan: ADCK4 / KINOMEscan: AKT1 / KINOMEscan: AKT3 / KINOMEscan: ALK / KINOMEscan: ARK5 / KINOMEscan: AURKA / KINOMEscan: AURKC / KINOMEscan: BIKE / KINOMEscan: BMPR1A / KINOMEscan: BMPR1B / KINOMEscan: BMX / KINOMEscan: BRK / KINOMEscan: BRSK1 / KINOMEscan: BRSK2 / KINOMEscan: CAMK1 / KINOMEscan: CAMK1D / KINOMEscan: CAMK1G / KINOMEscan: CAMK2A / KINOMEscan: CAMK2B / KINOMEscan: AAK1 / KINOMEscan: CAMK2D / KINOMEscan: CAMK2G / KINOMEscan: ABL1(F317I)-nonphosphorylated / KINOMEscan: ABL1(F317I)-phosphorylated / KINOMEscan: ABL1(F317L)-nonphosphorylated: unit: % Ctrl
Conditions in all cases: Compound Concentration 10 µM
panel of 442 kinases [1] = molecular target: T1, panel of 442 kinases (Homo sapiens, UniProt P00519, T315I)
T1 construct: purchased KINOMEscan
Source text: (§1) We assessed the selectivity of members of this scaffold using the KINOMEscan methodology across a near comprehensive panel of 442 kinases [[18,27]].

panel of 442 kinases [2] = molecular target: T2, panel of 442 kinases (Homo sapiens, UniProt P17948)
T2 construct: purchased KINOMEscan
T2 sequence (P17948 27-1338): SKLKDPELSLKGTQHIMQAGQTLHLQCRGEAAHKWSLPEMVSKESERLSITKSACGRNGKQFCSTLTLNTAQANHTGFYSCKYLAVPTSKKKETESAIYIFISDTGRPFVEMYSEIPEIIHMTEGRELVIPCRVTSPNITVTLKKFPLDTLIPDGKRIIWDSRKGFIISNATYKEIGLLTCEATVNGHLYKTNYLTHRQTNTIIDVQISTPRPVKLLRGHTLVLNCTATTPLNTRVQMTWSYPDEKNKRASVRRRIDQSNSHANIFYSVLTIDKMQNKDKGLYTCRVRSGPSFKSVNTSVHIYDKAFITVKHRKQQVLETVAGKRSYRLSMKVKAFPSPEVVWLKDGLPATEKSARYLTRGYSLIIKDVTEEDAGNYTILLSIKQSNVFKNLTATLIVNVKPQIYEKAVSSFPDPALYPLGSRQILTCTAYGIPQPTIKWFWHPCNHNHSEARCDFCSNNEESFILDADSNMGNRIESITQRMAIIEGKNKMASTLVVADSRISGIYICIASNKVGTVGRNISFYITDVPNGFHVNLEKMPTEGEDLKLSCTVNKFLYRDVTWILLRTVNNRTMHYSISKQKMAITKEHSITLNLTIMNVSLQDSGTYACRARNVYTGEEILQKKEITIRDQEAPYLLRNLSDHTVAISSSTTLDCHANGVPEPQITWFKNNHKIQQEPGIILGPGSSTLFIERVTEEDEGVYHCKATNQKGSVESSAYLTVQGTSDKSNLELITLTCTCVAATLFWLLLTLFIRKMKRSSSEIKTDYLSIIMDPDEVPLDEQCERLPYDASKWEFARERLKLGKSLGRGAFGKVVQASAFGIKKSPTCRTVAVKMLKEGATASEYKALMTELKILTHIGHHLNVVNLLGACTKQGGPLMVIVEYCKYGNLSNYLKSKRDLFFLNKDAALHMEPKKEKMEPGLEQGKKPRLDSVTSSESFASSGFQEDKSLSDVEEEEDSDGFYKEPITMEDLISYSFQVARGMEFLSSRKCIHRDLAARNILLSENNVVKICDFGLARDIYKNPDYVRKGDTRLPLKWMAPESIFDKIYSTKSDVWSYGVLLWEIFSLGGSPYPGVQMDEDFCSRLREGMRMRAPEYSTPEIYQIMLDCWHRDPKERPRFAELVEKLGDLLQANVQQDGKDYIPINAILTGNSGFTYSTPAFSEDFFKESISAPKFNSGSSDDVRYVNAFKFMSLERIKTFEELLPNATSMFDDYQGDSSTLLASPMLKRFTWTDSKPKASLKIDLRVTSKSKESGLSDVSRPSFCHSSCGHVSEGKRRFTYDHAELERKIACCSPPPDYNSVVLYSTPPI
Source text: as §1

panel of 442 kinases [3] = molecular target: T3, panel of 442 kinases (Homo sapiens, UniProt P42336, M1043I)
T3 construct: purchased KINOMEscan
T3 sequence (P42336 whole entry M1043I): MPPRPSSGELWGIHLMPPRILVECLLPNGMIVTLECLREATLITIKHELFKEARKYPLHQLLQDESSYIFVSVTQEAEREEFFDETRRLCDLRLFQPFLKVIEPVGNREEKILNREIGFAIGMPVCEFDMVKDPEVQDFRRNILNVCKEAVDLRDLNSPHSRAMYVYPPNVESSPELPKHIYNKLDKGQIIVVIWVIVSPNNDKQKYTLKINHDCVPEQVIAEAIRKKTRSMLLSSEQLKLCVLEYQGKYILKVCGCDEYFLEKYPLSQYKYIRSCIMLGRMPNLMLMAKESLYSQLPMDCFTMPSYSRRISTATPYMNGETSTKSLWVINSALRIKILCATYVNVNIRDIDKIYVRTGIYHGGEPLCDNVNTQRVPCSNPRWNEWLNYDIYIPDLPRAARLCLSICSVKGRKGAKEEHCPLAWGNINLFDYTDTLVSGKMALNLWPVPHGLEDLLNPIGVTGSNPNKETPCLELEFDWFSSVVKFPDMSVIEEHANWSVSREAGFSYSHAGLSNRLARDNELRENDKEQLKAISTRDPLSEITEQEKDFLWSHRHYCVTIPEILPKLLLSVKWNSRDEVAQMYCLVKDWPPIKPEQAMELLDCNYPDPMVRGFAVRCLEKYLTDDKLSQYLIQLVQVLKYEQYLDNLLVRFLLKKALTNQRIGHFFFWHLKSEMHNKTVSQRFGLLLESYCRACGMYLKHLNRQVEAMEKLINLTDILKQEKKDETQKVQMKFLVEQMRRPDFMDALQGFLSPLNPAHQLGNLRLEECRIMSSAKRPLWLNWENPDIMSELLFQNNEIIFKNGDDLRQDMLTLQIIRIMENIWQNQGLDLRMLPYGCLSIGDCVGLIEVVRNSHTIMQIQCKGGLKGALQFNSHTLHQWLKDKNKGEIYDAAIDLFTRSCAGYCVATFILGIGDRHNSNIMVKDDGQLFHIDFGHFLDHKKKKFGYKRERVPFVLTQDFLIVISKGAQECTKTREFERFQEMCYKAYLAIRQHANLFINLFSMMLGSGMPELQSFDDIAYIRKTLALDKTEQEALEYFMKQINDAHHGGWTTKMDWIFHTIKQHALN
Source text: as §1

panel of 442 kinases [4] = molecular target: T4, panel of 442 kinases (Homo sapiens, UniProt Q86Z02)
T4 construct: purchased KINOMEscan
T4 sequence (Q86Z02 whole entry): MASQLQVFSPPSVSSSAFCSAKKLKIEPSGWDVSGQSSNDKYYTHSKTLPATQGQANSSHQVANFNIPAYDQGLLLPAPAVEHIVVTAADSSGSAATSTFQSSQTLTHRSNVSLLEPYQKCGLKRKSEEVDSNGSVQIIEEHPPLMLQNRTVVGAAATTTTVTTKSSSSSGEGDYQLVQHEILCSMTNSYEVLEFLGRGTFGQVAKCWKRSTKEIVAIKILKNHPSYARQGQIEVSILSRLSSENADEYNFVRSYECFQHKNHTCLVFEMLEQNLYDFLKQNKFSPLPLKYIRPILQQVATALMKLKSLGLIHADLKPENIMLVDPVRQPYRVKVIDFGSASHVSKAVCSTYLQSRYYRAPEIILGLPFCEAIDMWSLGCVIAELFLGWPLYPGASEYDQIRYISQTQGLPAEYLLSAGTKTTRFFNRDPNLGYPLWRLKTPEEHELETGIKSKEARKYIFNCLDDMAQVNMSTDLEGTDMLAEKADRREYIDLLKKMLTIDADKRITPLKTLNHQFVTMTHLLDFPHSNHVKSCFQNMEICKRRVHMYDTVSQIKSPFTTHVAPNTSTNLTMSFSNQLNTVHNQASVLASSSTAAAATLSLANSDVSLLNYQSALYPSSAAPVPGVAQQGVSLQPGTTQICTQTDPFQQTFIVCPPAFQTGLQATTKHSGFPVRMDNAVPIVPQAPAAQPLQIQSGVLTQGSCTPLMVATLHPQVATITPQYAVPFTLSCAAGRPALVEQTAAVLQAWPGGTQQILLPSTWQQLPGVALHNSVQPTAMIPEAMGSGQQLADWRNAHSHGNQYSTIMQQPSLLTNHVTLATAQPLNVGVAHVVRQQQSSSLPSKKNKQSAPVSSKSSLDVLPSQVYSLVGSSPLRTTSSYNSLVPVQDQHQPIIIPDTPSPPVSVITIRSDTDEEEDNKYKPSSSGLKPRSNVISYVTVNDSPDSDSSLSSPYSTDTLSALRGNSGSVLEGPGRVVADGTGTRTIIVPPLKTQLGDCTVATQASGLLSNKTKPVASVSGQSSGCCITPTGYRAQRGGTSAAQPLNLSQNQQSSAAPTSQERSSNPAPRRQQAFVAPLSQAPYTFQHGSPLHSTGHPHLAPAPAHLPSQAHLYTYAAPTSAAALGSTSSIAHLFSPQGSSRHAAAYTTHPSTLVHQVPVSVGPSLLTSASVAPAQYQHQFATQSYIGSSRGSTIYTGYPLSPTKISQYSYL
Source text: as §1

Row | Compound | KINOMEscan: ABL1(T315I)-nonphosphorylated (panel of 442 kinases [1]) | KINOMEscan: ABL1(T315I)-phosphorylated (panel of 442 kinases [1]) | KINOMEscan: FLT1 (panel of 442 kinases [2]) | KINOMEscan: PIK3CA(M1043I) (panel of 442 kinases [3]) | KINOMEscan: HIPK1 (panel of 442 kinases [4])
1 | COc1cc(C(=O)N2CCC(N3CCN(C)CC3)CC2)ccc1Nc1ncc2c(n1)N(C)c1ccccc1C(=O)N2C [15 (LRRK2-IN-1)] | 100 | 58 | 100 | 65 | 100
2 | COc1cc(C(=O)N2CCC(N3CCN(C)CC3)CC2)ccc1Nc1ncc2c(n1)N1CCc3cccc(c31)C(=O)N2C [Compound 24] |  | 100 |  | 66 | 52
3 | COc1cc(C(=O)N2CCC(N3CCN(C)CC3)CC2)ccc1Nc1ncc2c(n1)N(C1CCCC1)c1ccccc1C(=O)N2C [Compound 25, 11-cyclopentyl-2-((2-methoxy-4-(4-(4-methylpiperazin-1-yl)piperidine-1-carbonyl)phenyl)amino)-5-methyl-5H-benzo[e]pyrimido[5,4-b][1,4]diazepin-6(11H)-one] | 100 | 100 | 100 | 93 | 100
4 | CCOc1cc(C(=O)N2CCC(N3CCN(C)CC3)CC2)ccc1Nc1ncc2c(n1)N(C1CCCC1)c1ccccc1C(=O)N2C [Compound 26] | 95 | 92 | 100 | 92 | 100
